Measurements reported in publication PMC7997579, “Synthetic Lethality in Pancreatic Cancer: Discovery of a New RAD51-BRCA2 Small Molecule Disruptor That Inhibits Homologous Recombination and Synergizes with Olaparib” (Journal of Medicinal Chemistry, 2020).

Molecular target: T1, BRC4–RAD51 interaction (Homo sapiens, UniProt Q06609)
T1 construct: purchased Creative Biomart (RAD51); Life Technologies (BRC4 peptide)
T1 sequence (Q06609 1-339): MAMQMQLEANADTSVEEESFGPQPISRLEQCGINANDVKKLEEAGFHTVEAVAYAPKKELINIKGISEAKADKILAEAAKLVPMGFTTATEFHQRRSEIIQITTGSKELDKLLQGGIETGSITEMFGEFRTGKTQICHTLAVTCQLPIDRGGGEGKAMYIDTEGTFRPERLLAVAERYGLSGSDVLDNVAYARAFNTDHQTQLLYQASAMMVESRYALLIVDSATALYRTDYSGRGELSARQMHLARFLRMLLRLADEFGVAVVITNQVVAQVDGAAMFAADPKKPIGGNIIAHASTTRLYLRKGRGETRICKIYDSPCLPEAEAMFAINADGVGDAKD
Assay: Competitive biochemical ELISA assay (biotinylated BRC4 peptide vs RAD51)
Assay type: binding
Conditions: Table 2, compounds selected for cell-based study; read-out: EC50 ELISA
Procedure: To investigate the mechanism of action of the new dihydroquinolone pyrazoline derivatives, different biological assays were performed. As a primary screening, the ability of compounds 5d–57d to inhibit RAD51-BRCA2 interaction was investigated with a competitive biochemical ELISA assay against the parent compound 4d (Table 1). This assay is effective in evaluating the ability of new molecules to compete with BRC4 to bind to RAD51.[30] […] 18d–21d, 23d, 25d, 30d, and 31d were active at micromolar range, all very similar to the initial hit. […] The replacement of the aromatic ring A in combination with the substitution of the pyrazoline nitrogen with either propionyl or acetyl chain yielded compounds 33d–51d. […] As expected for PPI disruptors, the SARs of the new series of dihydroquinolone pyrazoline were rather complex to rationalize, with many cliffs and spikes that were difficult to understand. […] Accordingly, 4d, 12d, 18d, 20d–23d, 30d, 31d, 33d–36d, 39d, 45d, and 49d were submitted to cell-based study (Table 2).
Competitive ELISA screening assay using biotinylated BRC4 peptide to disrupt the BRC4–RAD51 interaction was performed by modifying the method described by Rajendra et al.[33] BRC4-biotinylated peptide (N-term biotin-[…] from Life Technologies) was used to coat 384-well plates (Nunc). After washing with PBS containing 0.05% Tween-20 (PBST) and blocking with the solution BSA 1% /PBST, overnight hybridization with human RAD51 protein (NP_002866 Creative Biomart, NY) was performed. Test compounds were added in dose response from 0.01 to 100 μM in triplicate with constant DMSO 1%. Antibody raised against RAD51 (Millipore) and HRP-secondary antibody staining to develop the 3,3′,5,5′-tetramethylbenzidine signal (Sigma) quenched with 1 M HCl was used as the assay readout. Colorimetric measure was read on a Victor5 (PerkinElmer) plate reader. BRC4 and Rad51 were included in the assay as positive control. Results were analyzed by using GraphPad software.

Structure (SMILES)	EC50
O=C(O)CCC(=O)N1N=C(c2c(-c3ccccc3)c3cc(Cl)ccc3[nH]c2=O)CC1c1ccc(F)cc1 (stereo not drawn) [Compound 4d, 4-(3-(6-Chloro-2-oxo-4-phenyl-1,2-dihydroquinolin-3-yl)-5-(4-fluorophenyl)-4,5-dihydro-1H-pyrazol-1-yl)-4-oxobutanoic Acid]	16 ± 4 µM

Same assay, conditions: competition with BRC4 for RAD51; triplicate, ± standard deviation; NA = not active; racemic mixtures unless enantiomer named

Structure (SMILES)	EC50 (μM) on ELISA assay
CCn1cc2cc(C3CC(c4c(-c5ccccc5)c5cc(Cl)ccc5[nH]c4=O)=NN3C(C)=O)ccc2n1 (stereo not drawn) [Compound 48d, 3-(1-Acetyl-5-(2-ethyl-2H-indazol-5-yl)-4,5-dihydro-1H-pyrazol-3-yl)-6-chloro-4-phenylquinolin-2(1H)-one]	inactive
CCn1ncc2cc(C3CC(c4c(-c5ccccc5)c5cc(Cl)ccc5[nH]c4=O)=NN3C(=O)CCC(=O)O)ccc21 (stereo not drawn) [Compound 24d, 4-(3-(6-Chloro-2-oxo-4-phenyl-1,2-dihydroquinolin-3-yl)-5-(1-ethyl-1H-indazol-5-yl)-4,5-dihydro-1H-pyrazol-1-yl)-4-oxobutanoic Acid]	inactive
COc1ccc(C2CC(c3c(-c4ccccc4)c4cc(Cl)ccc4[nH]c3=O)=NN2C(C)=O)cc1 (stereo not drawn) [Compound 38d, 3-(1-Acetyl-5-(4-methoxyphenyl)-4,5-dihydro-1H-pyrazol-3-yl)-6-chloro-4-phenylquinolin-2(1H)-one]	inactive
CCCn1cc2cc(C3CC(c4c(-c5ccccc5)c5cc(Cl)ccc5[nH]c4=O)=NN3C(C)=O)ccc2n1 (stereo not drawn) [Compound 50d, 3-(1-Acetyl-5-(2-propyl-2H-indazol-5-yl)-4,5-dihydro-1H-pyrazol-3-yl)-6-chloro-4-phenylquinolin-2(1H)-one]	inactive

Same assay, conditions: competition with BRC4 for RAD51; triplicate, ± standard deviation; NA = not active; racemic mixtures unless enantiomer named; read-out: EC50 (μM) on ELISA assay

Structure (SMILES)	EC50
O=C(O)CCC(=O)N1N=C(c2c(-c3ccccc3)c3cc(Cl)ccc3[nH]c2=O)CC1c1ccc(F)cc1 (stereo not drawn) [Compound 4d, 4-(3-(6-Chloro-2-oxo-4-phenyl-1,2-dihydroquinolin-3-yl)-5-(4-fluorophenyl)-4,5-dihydro-1H-pyrazol-1-yl)-4-oxobutanoic Acid]	16 ± 4 µM
O=C(O)CCC(=O)N1N=C(c2c(-c3ccccc3)c3cc(Cl)ccc3[nH]c2=O)CC1c1ccc(C(F)(F)F)cc1 (stereo not drawn) [Compound 16d, 4-(3-(6-Chloro-2-oxo-4-phenyl-1,2-dihydroquinolin-3-yl)-5-(4-(trifluoromethyl)phenyl)-4,5-dihydro-1H-pyrazol-1-yl)-4-oxobutanoic Acid]	29 ± 2 µM
CC(=O)N1N=C(c2c(-c3ccccc3)c3cc(Cl)ccc3[nH]c2=O)CC1c1ccc(-c2ccc(Cl)cc2)cc1 (stereo not drawn) [Compound 42d, 3-(1-Acetyl-5-(4′-chloro-[1,1′-biphenyl]-4-yl)-4,5-dihydro-1H-pyrazol-3-yl)-6-chloro-4-phenylquinolin-2(1H)-one]	45 ± 8 µM
CCn1ccc2cc(C3CC(c4c(-c5ccccc5)c5cc(Cl)ccc5[nH]c4=O)=NN3C(C)=O)ccc21 (stereo not drawn) [Compound 46d, 3-(1-Acetyl-5-(1-ethyl-1H-indol-5-yl)-4,5-dihydro-1H-pyrazol-3-yl)-6-chloro-4-phenylquinolin-2(1H)-one]	50 ± 15 µM
CCC(=O)N1N=C(c2c(-c3ccccc3)c3cc(Cl)ccc3[nH]c2=O)CC1c1ccc(F)cc1 (stereo not drawn) [Compound 6d, 6-Chloro-3-(5-(4-fluorophenyl)-1-propionyl-4,5-dihydro-1H-pyrazol-3-yl)-4-phenylquinolin-2(1H)-one]	34 ± 3 µM
COc1ccc(-c2ccc(C3CC(c4c(-c5ccccc5)c5cc(Cl)ccc5[nH]c4=O)=NN3C(C)=O)cc2)cc1 (stereo not drawn) [Compound 44d, 3-(1-Acetyl-5-(4′-methoxy-[1,1′-biphenyl]-4-yl)-4,5-dihydro-1H-pyrazol-3-yl)-6-chloro-4-phenylquinolin-2(1H)-one]	70 ± 6 µM
O=C(O)CCC(=O)N1N=C(c2c(-c3ccccc3)c3cc(Cl)ccc3[nH]c2=O)CC1c1ccc(-c2ccc(Cl)cc2)cc1 (stereo not drawn) [Compound 19d, 4-(3-(6-Chloro-2-oxo-4-phenyl-1,2-dihydroquinolin-3-yl)-5-(4′-chloro-[1,1′-biphenyl]-4-yl)-4,5-dihydro-1H-pyrazol-1-yl)-4-oxobutanoic Acid]	25 ± 5 µM
CC(=O)N1N=C(c2c(-c3ccccc3)c3cc(Cl)ccc3[nH]c2=O)CC1c1ccc(-c2ccc(Br)cc2)cc1 (stereo not drawn) [Compound 43d, 3-(1-Acetyl-5-(4′-bromo-[1,1′-biphenyl]-4-yl)-4,5-dihydro-1H-pyrazol-3-yl)-6-chloro-4-phenylquinolin-2(1H)-one]	70 ± 15 µM
O=C(O)CCC(=O)N1N=C(c2c(-c3ccccc3)c3cc(Cl)ccc3[nH]c2=O)CC1c1ccc(Cl)cc1 (stereo not drawn) [Compound 11d, 4-(3-(6-Chloro-2-oxo-4-phenyl-1,2-dihydroquinolin-3-yl)-5-(4-chlorophenyl)-4,5-dihydro-1H-pyrazol-1-yl)-4-oxobutanoic Acid]	59 ± 8 µM
CCCn1cc(-c2ccc(C3CC(c4c(-c5ccccc5)c5cc(Cl)ccc5[nH]c4=O)=NN3C(=O)CCC(=O)O)cc2)cn1 (stereo not drawn) [Compound 32d, 4-(3-(6-Chloro-2-oxo-4-phenyl-1,2-dihydroquinolin-3-yl)-5-(4-(1-propyl-1H-pyrazol-4-yl)phenyl)-4,5-dihydro-1H-pyrazol-1-yl)-4-oxobutanoic Acid]	65 ± 5 µM
CC(=O)N1N=C(c2c(-c3ccccc3)c3cc(Cl)ccc3[nH]c2=O)CC1c1ccc(Br)cc1 (stereo not drawn) [Compound 37d, 3-(1-Acetyl-5-(4-bromophenyl)-4,5-dihydro-1H-pyrazol-3-yl)-6-chloro-4-phenylquinolin-2(1H)-one]	38 ± 7 µM
CCn1ncc2cc(C3CC(c4c(-c5ccccc5)c5cc(Cl)ccc5[nH]c4=O)=NN3C(C)=O)ccc21 (stereo not drawn) [Compound 47d, 3-(1-Acetyl-5-(1-ethyl-1H-indazol-5-yl)-4,5-dihydro-1H-pyrazol-3-yl)-6-chloro-4-phenylquinolin-2(1H)-one]	40 ± 3 µM
CCn1cc2cc(C3CC(c4c(-c5ccccc5)c5cc(Cl)ccc5[nH]c4=O)=NN3C(=O)CCC(=O)O)ccc2n1 (stereo not drawn) [Compound 25d, 4-(3-(6-Chloro-2-oxo-4-phenyl-1,2-dihydroquinolin-3-yl)-5-(2-ethyl-2H-indazol-5-yl)-4,5-dihydro-1H-pyrazol-1-yl)-4-oxobutanoic Acid]	28 ± 4 µM
CCCn1cc(-c2ccc(C3CC(c4c(-c5ccccc5)c5cc(Cl)ccc5[nH]c4=O)=NN3C(C)=O)cc2)cn1 (stereo not drawn) [Compound 51d, 3-(1-Acetyl-5-(4-(1-propyl-1H-pyrazol-4-yl)phenyl)-4,5-dihydro-1H-pyrazol-3-yl)-6-chloro-4-phenylquinolin-2(1H)-one]	46 ± 9 µM
CC(=O)N1N=C(c2c(-c3ccccc3)c3cc(Cl)ccc3[nH]c2=O)CC1c1ccc(F)cc1 (stereo not drawn) [Compound 5d, 3-(1-Acetyl-5-(4-fluorophenyl)-4,5-dihydro-1H-pyrazol-3-yl)-6-chloro-4-phenylquinolin-2(1H)-one]	50 ± 10 µM

System: homologous recombination in BxPC3 cells
Assay: Homologous recombination assay (two-plasmid recombination, real-time PCR)
Assay type: cell-based, human
Conditions: Homo sapiens, BXPC-3; 40 μM, BxPC3, 5 h during plasmid transfection
Excerpt: Our working hypothesis is that compounds disrupting RAD51-BRCA2 interaction should affect HR repair and increase the efficacy of PARPi in treating breast, ovarian, and pancreatic cancer. For its clinical relevance, pancreatic adenocarcinoma was selected as our final model for cell-based experiments, and BxPC3 cells were selected for a straightforward comparison with the previously reported triazole derivatives.[30],[31] BxPC3 is derived from a human adenocarcinoma that expresses fully functional BRCA2.[38] As shown in Table 2 and according to the rationale of our hypothesis, our preliminary screening consisted of verifying the efficacy of compounds in inhibiting cell HR and/or in increasing the antiproliferative effect of olaparib. […] HR activity was assessed by evaluating the recombination rate between two transfected plasmids, using a commercially available assay. […] As for the emissucinic acid-containing compounds (4d, 12d, 18d, 20d–23d, 30d, 31d), one of the reasons for their lower potency in cells might be the general poor permeability, likely related to the ionizable acid moiety. […] We then characterized 35d in additional biophysical and cell-based experiments.
Homologous recombination (HR) was assessed by using a commercially available assay (Norgen). This assay is based on cell transfection with two plasmids that, upon cell entry, recombine. The efficiency of HR can be assessed by real-time PCR, using primer mixtures included in the assay kit. Different primer mixtures allow one to discriminate between the original plasmid backbones and their recombination product.
BxPC3 cells (2 × 10^5 per well) were seeded in a 24-well plate and allowed to adhere overnight. Co-transfection with the two plasmids was performed in Lipofectamine 2000 (Invitrogen) according to the manufacturer’s instructions. During transfection (5 h), cells were exposed to different doses of RAD51-BRCA2 disruptors, dissolved in RPMI in the presence of 0.6% DMSO. After washing with PBS, cells were harvested, and DNA was isolated using Illustra Tissue and Cell Genomic Prep Mini Spin kit (GE Healthcare). Sample concentration was measured using an ONDA Nano Genius photometer. The efficiency of HR was assessed by real-time PCR, using 25 ng of template, the primer mixtures included in the assay kit and following the protocol indicated by the manufacturer. Data analysis was based on the ΔΔCt method: [recombination product/backbone plasmids]^treated versus [recombination product/backbone plasmids]^control.

Structure (SMILES)	inhibition at 40 µM
O=C(O)CCC(=O)N1N=C(c2c(-c3ccccc3)c3cc(Cl)ccc3[nH]c2=O)CC1c1ccc(F)cc1 (stereo not drawn) [Compound 4d, 4-(3-(6-Chloro-2-oxo-4-phenyl-1,2-dihydroquinolin-3-yl)-5-(4-fluorophenyl)-4,5-dihydro-1H-pyrazol-1-yl)-4-oxobutanoic Acid]	10%
